Values after ≈ are worked out from the molar mass of the structure shown.
Assays:
acid ceramidase = target: T1, acid ceramidase (Homo sapiens, UniProt Q13510); assay: Acid ceramidase inhibition, biochemical fluorescent assay with cell lysates overexpressing acid ceramidase, substrate Rbm14-12; details: substrate Rbm14-12 6.3 μM
T1 construct: Cell lysates overexpressing acid ceramidase were used as the enzyme source; expressed in transfected cells
T1 sequence (Q13510 22-395): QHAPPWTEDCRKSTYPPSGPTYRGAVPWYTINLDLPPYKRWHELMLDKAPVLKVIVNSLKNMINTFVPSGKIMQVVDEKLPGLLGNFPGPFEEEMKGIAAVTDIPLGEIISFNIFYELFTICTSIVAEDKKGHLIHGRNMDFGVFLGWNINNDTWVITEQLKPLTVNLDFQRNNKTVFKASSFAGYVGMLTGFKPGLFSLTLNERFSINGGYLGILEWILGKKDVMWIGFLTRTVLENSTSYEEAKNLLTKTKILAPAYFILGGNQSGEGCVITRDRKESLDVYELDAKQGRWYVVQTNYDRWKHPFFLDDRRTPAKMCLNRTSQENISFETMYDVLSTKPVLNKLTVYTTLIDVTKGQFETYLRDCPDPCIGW
Method in brief: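 IC50 derived by four-parameter fitting of fluorescence (ex360 nm, em446 nm) produced after 1 hr in methanol/NaIO4/glycine stop buffer, pH 10.6. Reaction: 6.3 μM Rbm14-12, 1 hr RT, following 1 hr RT compound preincubation with 10 μg overexpressing-cell lysate protein in pH 4.5 NaAC/NaCl buffer.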

physchem = details: water
[1] = Compound solubility in water
[2] = pH 4.5, 1 hr preincubation at RT

Row | SMILES | IC50 (acid ceramidase; pH 4.5) [nM] | solubility (physchem) [µg/mL] | IC50 (acid ceramidase; [2]) [nM] | solubility [1] [µg/mL]
1 | CC(C)CCNC(=O)n1cnc2c(N3CC3C(F)(F)F)cccc21 (centres unmarked) [Example 164, N-iso-Pentyl-4-(2-(trifluoromethyl)-aziridin-1-yl)-1H-benzo[d]imidazole-1-carboxamide] | < 200 | 2 (≈ 5.88 µM) |  | 
2 | O=C(NCCCc1ccccc1)n1cnc2c(N3CC3C(F)(F)F)cccc21 (centres unmarked) [Example 242, N-(3-phenylpropyl)-4-(2-(trifluoromethyl)aziridin-1-yl)-1H-benzo[d]imidazole-1-carboxamide] | < 200 | 1 (≈ 2.57 µM) |  | 
3 | O=C(NCCCc1ccccc1)n1cnc2c(N3CC3F)cccc21 (centres unmarked) [Example 274, 4-(2-Fluoroaziridin-1-yl)-N-(3-phenylpropyl)-1H-benzo[d]imidazole-1-carboxamide] | < 200 | 17 (≈ 50.2 µM) |  | 
4 | CC(C)C#CCNC(=O)n1cnc2c(N3CC3C(F)(F)F)cccc21 (centres unmarked) [Example 308, N-(4-Methylpent-2-yn-1-yl)-4-(2-(trifluoromethyl)-aziridin-1-yl)-1H-benzo[d]imidazole-1-carboxamide] | < 200 | 1 (≈ 2.85 µM) |  | 
5 | COc1ccccc1C#CCNC(=O)n1cnc2c(N3CCN(C)CC3)cccc21 [Example 341, N-(3-(2-Methoxyphenyl)prop-2-yn-1-yl)-4-(4-methylpiperazin-1-yl)-1H-benzo[d]imidazole-1-carboxamide] |  |  | < 200 | 20 (≈ 49.6 µM)
6 | C#Cc1ccc(CNC(=O)n2cnc3c(N4CCN(C)CC4)cccc32)cc1 [Example 342, N-(4-Ethynylbenzyl)-4-(4-methylpiperazin-1-yl)-1H-benzo[d]imidazole-1-carboxamide] |  |  | < 200 | 4 (≈ 10.7 µM)
7 | CN1CCN(CCOc2nc3ccccc3n2C(=O)NCCc2ccccc2)CC1 [Example 343] |  |  | 200 to 1000 | 24 (≈ 58.9 µM)
8 | CN1CCN(C2CN(c3cccc4c3ncn4C(=O)NCC(C)(C)Oc3ccccc3)C2)CC1 [Example 344, N-(2-Methyl-2-phenoxypropyl)-4-(3-(4-methylpiperazin-1-yl)azetidin-1-yl)-1H-benzo[d]imidazole-1-carboxamide] |  |  | < 200 | 29 (≈ 62.7 µM)
9 | CN1CCN(c2cccc3c2ncn3C(=O)NCC2Oc3ccccc3O2)CC1 [Example 345, N-(Benzo[d][1,3]dioxol-2-ylmethyl)-4-(4-methylpiperazin-1-yl)-1H-benzo[d]imidazole-1-carboxamide] |  |  | < 200 | 40 (≈ 102 µM)
10 | CN1CCN(c2cccc3c2ncn3C(=O)NCc2ccc3c(c2)OCO3)CC1 [Example 346, N-(Benzo[d][1,3]dioxol-5-ylmethyl)-4-(4-methylpiperazin-1-yl)-1H-benzo[d]imidazole-1-carboxamide] |  |  | < 200 | 11 (≈ 28 µM)
11 | CN1CCN(c2cccc3c2ncn3C(=O)NCc2ccn3cccc3c2)CC1 [Example 347, N-(Indolizin-7-ylmethyl)-4-(4-methylpiperazin-1-yl)-1H-benzo[d]imidazole-1-carboxamide] |  |  | < 200 | 25 (≈ 64.4 µM)
12 | CN1CCN(CCOc2nc3ccccc3n2C(=O)NCC#Cc2ccccc2)CC1 [Example 348, 2-(2-(4-Methylpiperazin-1-yl)ethoxy)-N-(3-phenylprop-2-yn-1-yl)-1H-benzo[d]imidazole-1-carboxamide] |  |  | < 200 | 8 (≈ 19.2 µM)
13 | CN1CCN(C2CN(c3cccc4c3ncn4C(=O)NCCc3ccccc3)C2)CC1 [Example 349, 4-(3-(4-Methylpiperazin-1-yl)azetidin-1-yl)-N-phenethyl-1H-benzo[d]imidazole-1-carboxamide] |  |  | 200 to 1000 | 37 (≈ 88.4 µM)
14 | CN1CCC2(CC1)CN(c1cccc3c1ncn3C(=O)NCCOc1ccccc1)C2 [Example 350, 4-(7-Methyl-2,7-diazaspiro[3.5]nonan-2-yl)-N-(2-phenoxyethyl)-1H-benzo[d]imidazole-1-carboxamide] |  |  | < 200 | 35 (≈ 83.4 µM)
15 | CN1CC2(CCN(c3cccc4c3ncn4C(=O)NCCOc3ccccc3)CC2)C1 [Example 351, 4-(2-Methyl-2,7-diazaspiro[3.5]nonan-7-yl)-N-(2-phenoxyethyl)-1H-benzo[d]imidazole-1-carboxamide] |  |  | < 200 | 33 (≈ 78.7 µM)
16 | CN1CCN(c2cccc3c2ncn3C(=O)NCCC#Cc2ccccc2)CC1 [Example 352, 4-(4-Methylpiperazin-1-yl)-N-(4-phenylbut-3-yn-1-yl)-1H-benzo[d]imidazole-1-carboxamide] |  |  | < 200 | 2 (≈ 5.16 µM)

Row | SMILES | IC50 (acid ceramidase; pH 4.5) [nM] | solubility (physchem) [µg/mL] | IC50 (acid ceramidase; [2]) [nM] | solubility [1] [µg/mL]
17 | CN(C)C1CN(c2cccc3c2ncn3C(=O)NCCOc2ccccc2)C1 [Example 353, 4-(3-(Dimethylamino)azetidin-1-yl)-N-(2-phenoxyethyl)-1H-benzo[d]imidazole-1-carboxamide] |  |  | < 200 | 16 (≈ 42.2 µM)
18 | CNC1CN(c2cccc3c2ncn3C(=O)NCCOc2ccccc2)C1 [Example 354, 4-(3-(Methylamino)azetidin-1-yl)-N-(2-phenoxyethyl)-1H-benzo[d]imidazole-1-carboxamide] |  |  | > 1000 | 19 (≈ 52 µM)
19 | CC(C)C#CCNC(=O)n1cnc2c(N3CC(N(C)C)C3)cccc21 [Example 355, 4-(3-(Dimethylamino)azetidin-1-yl)-N-(4-methylpent-2-yn-1-yl)-1H-benzo[d]imidazole-1-carboxamide] |  |  | 200 to 1000 | 22 (≈ 64.8 µM)
20 | CN1CC2CC1CN2C1CN(c2cccc3c2ncn3C(=O)NCCOc2ccccc2)C1 (centres unmarked) [Example 356, 4-(3-(5-Methyl-2,5-diazabicyclo[2.2.1]heptan-2-yl)azetidin-1-yl)-N-(2-phenoxyethyl)-1H-benzo[d]imidazole-1-carboxamide] |  |  | < 200 | 46 (≈ 103 µM)
21 | O=C(NCCc1ccccc1)n1c(OCCN2CCOCC2)nc2ccccc21 [Example 357, 2-(2-Morpholinoethoxy)-N-phenethyl-1H-benzo[d]imidazole-1-carboxamide] |  |  | 200 to 1000 | 6 (≈ 15.2 µM)
22 | CC(C)C#CCNC(=O)n1cnc2c(N3CC4(CN(C)C4)C3)cccc21 [Example 358, 4-(6-Methyl-2,6-diazaspiro[3.3]heptan-2-yl)-N-(4-methylpent-2-yn-1-yl)-1H-benzo[d]imidazole-1-carboxamide] |  |  | 200 to 1000 | 33 (≈ 93.9 µM)
23 | CC(C)C#CCNC(=O)n1cnc2c(N3CC4(CCN4C)C3)cccc21 [Example 359, 4-(1-Methyl-1,6-diazaspiro[3.3]heptan-6-yl)-N-(4-methylpent-2-yn-1-yl)-1H-benzo[d]imidazole-1-carboxamide] |  |  | 200 to 1000 | 23 (≈ 65.4 µM)
24 | CN1CCN(C2CN(c3cccc4c3ncn4C(=O)NCC#CC(C)(C)C)C2)CC1 [Example 360, N-(4,4-Dimethylpent-2-yn-1-yl)-4-(3-(4-methylpiperazin-1-yl)azetidin-1-yl)-1H benzo[d]imidazole-1-carboxamide] |  |  | < 200 | 27 (≈ 66.1 µM)
25 | CN1CC(N2CCN(c3cccc4c3ncn4C(=O)NCCC#Cc3ccccc3)CC2)C1 [Example 361] |  |  | < 200 | 24 (≈ 54.2 µM)
26 | CN1CCN(C2CN(c3cccc4c3ncn4C(=O)NCCC#Cc3ccccc3)C2)CC1 [Example 362, 4-(3-(4-Methylpiperazin-1-yl)azetidin-1-yl)-N-(4-phenylbut-3-ynyl)-1H-benzo[d]imidazole-1-carboxamide] |  |  | < 200 | 23 (≈ 52 µM)
27 | CN1CCN(CCOc2nc3ccccc3n2C(=O)NCCC#Cc2ccccc2)CC1 [Example 363, 2-(2-(4-Methylpiperazin-1-yl)ethoxy)-N-(4-phenylbut-3-yn-1-yl)-1H-benzo[d]imidazole-1-carboxamide] |  |  | < 200 | 28 (≈ 64.9 µM)
28 | CN(C)C1CN(c2cccc3c2ncn3C(=O)NCCC#Cc2ccccc2)C1 [Example 364, 4-(3-(Dimethylamino)azetidin-1-yl)-N-(4-phenylbut-3-ynyl)-1H-benzo[d]imidazole-1-carboxamide] |  |  | < 200 | 17 (≈ 43.9 µM)
29 | CN1CCN(c2cccc3c2ncn3C(=O)NCc2ccc3c(c2)OCCO3)CC1 [Example 365, N-((2,3-Dihydrobenzo[b][1,4]dioxin-6-yl)methyl)-4-(4-methylpiperazin-1-yl)-1H-benzo[d]imidazole-1-carboxamide] |  |  | < 200 | 11 (≈ 27 µM)
30 | CN1CCC2(CC1)CN(c1cccc3c1ncn3C(=O)NCCC#Cc1ccccc1)C2 [Example 366, 4-(7-Methyl-2,7-diazaspiro[3.5]nonan-2-yl)-N-(4-phenylbut-3-yn-1-yl)-1H-benzo[d]imidazole-1-carboxamide] |  |  | < 200 | 21 (≈ 49.1 µM)
31 | CN1CC2(CCN(c3cccc4c3ncn4C(=O)NCCC#Cc3ccccc3)CC2)C1 [Example 367, 4-(2-Methyl-2,7-diazaspiro[3.5]nonan-7-yl)-N-(4-phenylbut-3-yn-1-yl)-1H-benzo[d]imidazole-1-carboxamide] |  |  | < 200 | 27 (≈ 63.2 µM)
